PubChem BioAssay AID618 (Sanford-Burnham Center for Chemical Genomics, 2007)
pEC50: −log10 of the molar value. Calls of active or inactive are those of the source. How the calls were made is not given here.

test system: MT1-MMP promoter luciferase reporter cells, luminescence; experiment: MT1-MMP gene expression reporter suppression – cell-based, luciferase reporter, luminescence (AID 618);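 further: actives suppress MT1-MMP promoter-driven transcription so potencies describe inhibitors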

Compound	pEC50	EC50
CCCc1ccc(-c2ccc(F)c(N)c2)nc1	6.18	–
O=C(NC1=NCCS1)c1cc2ccccc2o1	5.19	–
c1ccc(-c2noc(-c3cccs3)n2)nc1	–	> 50 µM (inactive)
Cc1ccc(C(=O)Nc2nc3c(s2)CCCC3)o1	5.22	–
CC1=NC(=O)C(N=Nc2cccc(C(=O)O)c2)N1c1ccccc1 (stereo not given)	5.79	–
c1ccc(-c2ccc(-c3nc(-c4ccncc4)no3)cc2)cc1	5.04	–
Cc1nc2cc(-c3cccc(F)c3)nn2c(C)c1CCC(=O)NC(C)CCc1ccco1 (stereo not given)	5.95	–
COC(=O)c1ccc(-c2nc3cc(N)ccc3o2)cc1	5.51	–
Cc1cc(C)c2c(N)c(C(=O)Nc3nccs3)sc2n1	5.88	–
Cc1ccc2nc(-c3cc(N)cc(N)c3)oc2c1	5.80	–
Cc1ccc(C(=O)/C=C2\NCC(C)NC2=O)cc1 (stereo not given)	5.45	–
Cc1ccc(C(=O)Nc2cnc3ccccc3c2)cc1	6.70	–
CN1/C(=C\C=C\C2=[N+](C)c3ccc4ccccc4c3C2(C)C)C(C)(C)c2ccccc21	5.33	–
Fc1ccc(-c2nnc(-c3ccc(Cl)cc3Cl)o2)cc1	5.09	–
CN(C)c1nc(-c2ccccn2)nnc1-c1ccccc1	–	> 50 µM (inactive)
Cc1ccc(C(=O)CSc2nnnn2C(C)C)c(C)c1	5.77	–
CCOc1ccc(OCc2ccc(C(=O)O)o2)cc1	5.24	–
Cc1cc(C(=O)CSc2nnc(-c3cccs3)o2)c(C)n1-c1ccccc1	5.11	–
c1ccc(-c2cnc(-c3ccccc3)nc2)cc1	5.43	–
COC(=O)c1nn(-c2ccc(-c3ccccc3)cc2)cc1O	5.83	–
Cc1csc(NC(=O)C2COc3ccccc3O2)n1 (stereo not given)	5.79	–
Cc1cc(NC(=O)CSc2nc(-c3ccco3)cc(C(F)(F)F)n2)no1	–	> 50 µM (inactive)
O=C(Nc1ccccn1)c1cc2ccccc2o1	–	> 50 µM (inactive)
COc1ccc(S(=O)(=O)N2CCN(C(=O)CCC3CCCC3)CC2)cc1	–	> 50 µM (inactive)
c1ccc(-c2cn3nc4c(nc3n2)CCCC4)cc1	6.27	–
COc1ccc(C(=O)Nn2c(SCC(=O)NCc3ccccc3)nc3ccccc3c2=O)cc1	5.89	–

Compound	pEC50	EC50
CC(C)(C)c1ccc(OCC(O)CSc2ncn[nH]2)cc1 (stereo not given)	4.77	–
CCCN1C=CC(=C2C(=O)c3ccccc3C2=O)C=C1	> 7.01	–
CCN(CC)c1ccc2cc(-c3nc4ccccc4[nH]3)c(=O)oc2c1	5.97	–
Cc1ccccc1C(=O)N/N=C/c1ccc([N+](=O)[O-])s1	4.59	–
CNc1nnc(-c2ccc(N(C)C)cc2)s1	5.29	–
CC(=O)c1sc(NC(=O)C2COc3ccccc3O2)nc1C (stereo not given)	5.27	–
COc1cccc(Cn2c(NCc3cccnc3)nc3c2c(=O)n(C)c(=O)n3C)c1	6.60	–
Cc1ccc(-c2csc3ncnc(Sc4nnc(CN5CCCCCC5=O)o4)c23)cc1	4.82	–
O=C(O)CSCC(=O)Nc1ccc(C2CCCCC2)cc1	6.24	–
Cc1ccc(-n2nc3ccc(N)cc3n2)cc1	4.87	–
CCOc1ccc2nc(NC(=O)c3ccoc3C)sc2c1	6.01	–
Cc1cc(C)c2c(N)c(C(=O)Nc3ncc(C)s3)sc2n1	6.68	–
CC(C)(C)c1ccc(-c2nc(-c3ccncc3)no2)cc1	5.21	–
CCCOc1ccc(-c2nnc(-c3cccs3)o2)cc1	5.36	–
COc1cccc(C(=O)NCCC2=CCCCC2)c1	5.06	–
Cc1cc(C(=O)CSc2nc3ccccc3[nH]2)c(C)n1CC1CCCO1 (stereo not given)	5.41	–
Oc1c(CN2CCc3ccccc3C2)cc(Cl)c2cccnc12	5.24	–
Cc1c(C(=O)NCC2CCCO2)oc2ccc3c(c12)C(=O)CC(C)(C)O3 (stereo not given)	4.90	–
COc1ccccc1-c1nc(-c2ccccn2)no1	5.74	–
CN1/C(=C/C(=O)c2nc(S(C)(=O)=O)ncc2Cl)C(C)(C)c2ccccc21	4.79	–
COc1ccc(O)c(C(=O)CC(=O)c2ccccc2)c1	5.65	–
Oc1c(CN2CCCCC2)cc(COCc2ccccc2)c2cccnc12	5.16	–
c1ccc(-c2ccc(-c3ccccn3)nn2)nc1	5.38	–
CCCCCc1ccc(-c2ccc(C(=O)O)cc2)nc1	5.45	–
COCCn1c(C)cc(C(=O)CSc2ccc(NC(C)=O)cc2)c1C	5.07	–
CCOC(=O)C1CCCCN1C(=O)CCc1c(C)nc2cc(-c3ccccc3)nn2c1C (stereo not given)	5.94	–

Compound	pEC50	EC50
O=C(CCCOc1ccccc1)N1CCCCC1	5.16	–
N#Cc1c(NC(=O)CSc2ncn[nH]2)sc2c1CCCC2	6.14	–
CC(=O)Nc1ccc(OC(=O)N2CCCCC2)cc1	–	> 50 µM (inactive)
COc1ccc(-c2noc(CCCC(=O)O)n2)cc1	6.11	–
COc1ccc(NC(=O)/C(Cl)=C(/Cl)S(=O)(=O)Cc2ccc(C)cc2)cn1	4.84	–
O=C(Nc1cccc(O)c1)c1noc2c1CCCCC2	6.64	–
CC(=O)N(/N=C1\Sc2ccccc2C1=O)c1ccc(C)cc1C	5.71	–
COc1ccc(-c2cc3nnc(-c4ccccc4)nc3s2)cc1	6.07	–
Cc1c(NC(=O)c2coc(=O)c(Br)c2)c(=O)n(-c2ccccc2)n1C	4.88	–
O=C(CN1C(=O)c2ccccc2S1(=O)=O)c1ccccc1	–	> 50 µM (inactive)
Cc1cnc(NC(=O)C2COc3ccccc3O2)s1 (stereo not given)	6.21	–
N#C/C(=C\c1ccc(N2CCOCC2)o1)c1nc2ccccc2[nH]1	5.36	–
Cc1cc(C(=O)CN2C(=O)c3ccccc3S2(=O)=O)c(C)n1CC1CCCO1 (stereo not given)	6.96	–
O=C(NCc1cccs1)c1nc2c(nnn2Cc2ccccc2Cl)c(=O)[nH]1	–	> 50 µM (inactive)
O=C(Nc1ccc(NC(=O)c2ccco2)nc1)c1ccccn1	5.05	–
COc1ccc(-c2cc(C(=O)O)c(C)o2)cc1OC	5.45	–
COCCn1c(C)cc(C2=NNC(=Nc3ccccc3)SC2)c1C	5.28	–
Cc1ccc(C(=O)Nc2cccc(C(=O)O)c2)cc1	6.18	–
Cc1ccoc1C(=O)Nc1ccc(CC(=O)O)cc1	6.38	–
Cc1nn2cc(-c3ccccc3)nc2s1	4.91	–
Clc1cccc(-c2nnc(-c3ccccc3)o2)c1	5.15	–
Cc1ccc(-c2nc3cc(C)ccc3o2)cc1	5.63	–
CCOc1ccc(-c2nnc(-c3ccco3)o2)cc1	5.85	–
Cc1ccccc1NC(=O)c1cnc2ccccn2c1=O	5.67	–
O=C(O)CCSc1nnc(-c2ccc3c(c2)OCO3)o1	4.53	–
O=C(c1c(Cl)nc2sccn12)N1CCN(c2cccc(Cl)c2)CC1	4.31	–

Compound	pEC50	EC50
Nc1ccc(-c2nc3ccc(N)cc3o2)cc1	4.85	–
Cc1ccc(-c2nc3n(n2)Cc2ccccc2-3)cc1	5.83	–
O=C(Nc1ccc(N2CCCC2)c(Cl)c1)c1ccco1	5.57	–
COC(=O)c1nn(-c2ccc3c(c2)CCN3C(C)=O)cc1O	6.21	–
O=C(/C=C\Nc1ccccn1)c1ccccc1	5.70	–
Oc1cccc(-c2nc3ccccc3s2)c1	5.52	–
C=CCNc1nc(-c2ccccn2)nnc1-c1ccccc1	4.82	–
Cc1nc(Nc2nc3ccccc3o2)nc2c1CCC2	5.51	–
CC(C)(C)c1ccc(-c2noc(CCC(N)=O)n2)cc1	6.89	–
CCN=C1NN=C(c2ccc(C)cc2)CS1	5.70	–
CC(C)C(=O)Nc1ccc(-c2nc3cccnc3o2)cc1	5.22	–
COc1cccc(-c2nc(-c3ccccn3)no2)c1	6.18	–
O=C(/C=C/Nc1cccc(O)c1)c1ccccc1	5.88	–
CN(C(=O)c1ccco1)c1nc2c(s1)CCCC2	5.15	–
Cc1cc(N)n2nc(-c3ccccc3)cc2n1	4.46	–
Nc1ccc(C(=O)Nc2nc3ccccc3s2)cc1	5.46	–
Cc1ccc(C(=O)COC(=O)c2cccs2)cc1	4.73	–
CC(=O)N(Cc1ccc(F)cc1)C1=C(NCCc2ccccc2)C(=O)c2ccccc2C1=O	4.91	–
O=C(NC1=NC2CCCCC2N1)c1ccccc1 (stereo not given)	4.89	–
Cc1ccccc1Cn1nnc(-c2cccc(C(=O)O)c2)n1	4.74	–
Cn1ccnc1SCc1cn2cc(Br)ccc2n1	4.82	–
Cc1ccc2nc(NC(=O)c3ccco3)sc2c1	6.00	–
COc1ccc(NC(=O)c2cc3ccccn3n2)cc1	5.36	–
Cc1ccc(O)c(/C=N/NC(=O)C2=NNC(c3ccccc3)(c3ccccc3)C2)c1	4.72	–
COc1cccc(-c2nc3cc(C)ccc3o2)c1	5.36	–
c1ccc(-c2nc(-c3ccccn3)no2)cc1	5.09	–

Compound	pEC50	EC50
Cc1ccc(-c2nc(N/N=C/c3ccncc3)c3ccccc3n2)cc1	6.24	–
CCCCCN=Cc1c(C)[nH]n(-c2nc3ccccc3s2)c1=O	5.21	–
CC(C)C(=O)Nc1ccc(NC(=O)c2ccccn2)cn1	5.20	–
Cc1cc(C)c(C)c(S(=O)(=O)Nc2ccccc2C(=O)NCCCn2ccnc2)c1C	5.74	–
O=C(c1cccc(COc2ccc(Cl)cc2Cl)c1)N1CCN(c2ccccn2)CC1	4.90	–
COc1ccc(C(=O)Nn2c(SCC(=O)N3CCC(C)CC3)nc3ccccc3c2=O)cc1	5.70	–
COc1cc([N+](=O)[O-])ccc1N/C=C/C(=O)c1cccs1	5.69	–
Cc1ccc(C(=O)Nc2cccc(C(=O)O)c2)cc1S(=O)(=O)N1CCCCC1	5.14	–
Cc1ccc(SCc2cn3c(C)csc3n2)cc1	5.24	–
CCCC(=O)Nc1ccc(-c2nc3cc(C)ccc3o2)cc1	4.92	–
Cc1csc(NC(=O)c2cc3c(s2)CCCC3)n1	5.90	–
CCOC(=O)CNC(=O)CSc1ncnc2c1cnn2-c1ccc(C)cc1	4.55	–
COc1ccc(-c2nsc3c(N4CCCCC4)ncnc23)cc1	6.57	–
CCCCOc1ccc(C(=O)C(CN2CCOCC2)c2ccccc2)cc1 (stereo not given)	4.89	–
Cc1cc(-c2csc(N)n2)c(C)n1CCC(C)C	4.40	–
O=C(COc1ccc(CO)cc1Cl)Nc1ccc(F)cc1	5.52	–
COC(=O)c1ccc(-c2nc(-c3cccs3)no2)cc1	5.95	–
Cc1ccc(-c2nc(-c3ccccn3)no2)cc1	> 7.01	–
Fc1ccccc1OCCSc1nnnn1-c1ccccc1	4.90	–
COc1ccc(-c2cc3nc(C)cc(N)n3n2)cc1	5.76	–
COc1ccc(-c2cn3nc4c(nc3n2)CCCC4)cc1	6.23	–
CC1CCc2nc(NC(=O)C3CCCO3)sc2C1 (stereo not given)	4.91	–
CC(=O)Nc1ccc(SCC(=O)c2cc(C)n(Cc3cccs3)c2C)cc1	5.91	–
O=C(CCCc1ccccc1)c1ccc2c(c1)OCCO2	6.55	–
COc1ccc(C2=Nc3ccccc3OC2)cc1	4.42	–
CN(C)c1ccc(NC(=S)c2ccccn2)cc1	6.40	–
